The assay addresses T1, recombinant human androgen receptor (hAR) (Homo sapiens, UniProt P10275).
T1 construct: made in house; host or cells: Sf9 insect cells (baculovirus)
Put plainly: Human Androgen Receptor Binding Analysis (competitive binding vs 3H-dihydrotestosterone). Conditions: 1 nM 3H-DHT tracer, hydroxylapatite, one hour at 4° C.

The mark [1] stands for this setting: hAR Binding IC50, baculovirus/Sf9 generated hAR extract.

Each structure is given as a SMILES string. Read-outs that look alike come from different tables or passages of the source.

These results are taken from patent US6083956A, “Optically pure androgen mediator” (Pfizer Inc., priority 1999, dated 2000).

T1 sequence (P10275 whole entry): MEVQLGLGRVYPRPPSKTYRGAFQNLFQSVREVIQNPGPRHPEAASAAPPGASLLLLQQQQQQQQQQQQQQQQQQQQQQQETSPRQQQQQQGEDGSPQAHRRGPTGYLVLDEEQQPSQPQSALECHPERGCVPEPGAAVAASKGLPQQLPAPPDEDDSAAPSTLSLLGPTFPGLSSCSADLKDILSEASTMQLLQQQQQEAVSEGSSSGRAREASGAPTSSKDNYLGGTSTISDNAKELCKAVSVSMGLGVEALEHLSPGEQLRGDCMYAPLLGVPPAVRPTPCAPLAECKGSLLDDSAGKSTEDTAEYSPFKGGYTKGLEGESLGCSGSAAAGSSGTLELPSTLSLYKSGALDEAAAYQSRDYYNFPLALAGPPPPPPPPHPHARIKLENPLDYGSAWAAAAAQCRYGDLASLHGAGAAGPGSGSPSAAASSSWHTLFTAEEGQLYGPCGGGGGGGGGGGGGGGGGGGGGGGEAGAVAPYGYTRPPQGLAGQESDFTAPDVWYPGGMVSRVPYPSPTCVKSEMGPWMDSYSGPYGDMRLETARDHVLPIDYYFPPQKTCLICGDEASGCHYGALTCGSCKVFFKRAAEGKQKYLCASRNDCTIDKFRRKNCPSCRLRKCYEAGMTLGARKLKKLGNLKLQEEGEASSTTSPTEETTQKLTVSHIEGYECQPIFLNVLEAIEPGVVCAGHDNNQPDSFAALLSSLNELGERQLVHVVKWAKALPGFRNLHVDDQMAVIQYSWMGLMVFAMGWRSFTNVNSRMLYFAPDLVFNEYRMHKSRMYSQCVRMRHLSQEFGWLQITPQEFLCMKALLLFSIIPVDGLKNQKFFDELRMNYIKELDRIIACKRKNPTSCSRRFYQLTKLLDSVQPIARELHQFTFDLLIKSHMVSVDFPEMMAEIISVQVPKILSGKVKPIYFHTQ
Description: The following is a brief description of the assay that determines the affinity of a compound for the recombinant human androgen receptor (hAR). Competitive binding analysis is performed on baculovirus/Sf9 generated hAR extracts in the presence or absence of differing concentrations of drug and a fixed concentration of ^3 H-dihydrotestosterone (^3 H-DHT) as tracer. […] Briefly, progressively decreasing concentrations of compounds are incubated in the presence of hAR extract (Chang et al. P.N.A.S. Vol. 89, pp. 5546-5950, 1992), hydroxylapatite and 1 nM ^3 H-DHT for one hour at 4° C. Subsequently, the binding reactions are washed three times to completely remove excess unbound ^3 H-DHT. hAR bound.
^3 H-DHT levels are determined in the presence of compounds (=competitive binding) and compared to levels bound when no competitor is present (=maximum binding). Compound binding affinity to the hAR is expressed as the concentration of compound at which one half of the maximum binding is inhibited.

The IC50 is the midpoint of a concentration-inhibition curve. With `CCC1CCNc2cc3oc(=O)cc(C(F)(F)F)c3cc21` (racemic) [Racemate (±), Racemic 5-ethyl-4-trifluoromethyl-5,6,7,8-tetrahydro-1-oxa-8-aza-anthracen-2-one, reference compound], the half-maximal inhibitory concentration (IC50) (baculovirus/Sf9 generated hAR extract, read-out: hAR Binding IC50) came out at 35 nM.
For the compound `CCC1CCNc2cc3oc(=O)cc(C(F)(F)F)c3cc21` (single isomer, unassigned; (+)) [(+) Enantiomer, (+)-5-Ethyl-4-trifluoromethyl-5,6,7,8-tetrahydro-1-oxa-8-aza-anthracen-2-one], the IC50 under setting [1] was 112 nM.
The same measure, in the same setting: in the case of `CCC1CCNc2cc3oc(=O)cc(C(F)(F)F)c3cc21` (single isomer, unassigned; (-)) [(-) Enantiomer, (-)-5-ethyl-4-trifluoromethyl-5,6,7,8-tetrahydro-1-oxa-8-aza-anthracen-2-one] it was 5 nM.
